From US12071624B2, “Antisense oligonucleotide targeting ARL4C molecule, and nucleic acid drug using antisense oligonucleotide” (OSAKA UNIVERSITY, priority 2018, dated 2024)
[AmNA] = 2',4'-bridged nucleic acid with N-methyl amide bridge (AmNA); d = 2'-deoxy (DNA)

How the values were obtained:
neurolysin (NLN) mRNA = experiment: Off-target gene mRNA by real-time PCR in HLE cells (NLN); assay type: cell-based, human; conditions: HLE cells transfected at 25 nM
Experimental: Potential off-target genes in ARL4C ASO (hARL4C ASO-1316-AmNA [15-mer] (ARL4C ASO-1316) and hARL4C-3223-AmNA [19-mer] (ARL4C ASO-3223)) were identified by using database “Human Genomic plus Transcript (Human G+T)” (Build 2.7.1) as well as basic local alignment search tools (BLAST+programs) using MegaBlast algorithm.
(§1) Cell migration assays and quantitative real-time PCR analyses were performed according to the methods reported by Fujii S et al. (Oncogene 2015; 34: 4834-44).
Four genes of neurolysin (NLN), sapiens F-box and leucine-rich repeat protein 19 (FBXL19), keratin-associated protein 15-1 (KRTAP15-1), and sialic acid binding Ig-like lectin 6 (SIGLEC6) were identified as candidates for off-target genes of ASO-1316 and ASO-3223 by in silico analysis. HLE cells were transfected with ASO-1316 and ASO-3223 at 25 nM each, and mRNA amounts of NLN and FBXL19 were measured by real-time PCR; the results are shown in (d) of FIG. 3. […] In addition, KRTAP15-1 and SIGLEC6 were only slightly expressed in the HLE cells (data not shown).

HCT116 cells = experiment: Cell migration assay in HCT116 cells; assay type: cell-based; conditions: HCT116 cells transfected at 25 nM
Experimental: (§2) HLE cells, HCT116 cells, and A549 cells were transfected with 25 to 50 nM ASO and 10 to 20 nM siRNA using Lipofectamine 3000 (Invitrogen, Carlsbad, CA, USA) or RNAiMAX (Invitrogen). Transfected cells were used in the experiments 36 to 48 hours after the end of the transfection.
as §1
In addition, HCT116 cells were transfected with control ASO, ASO-1316 and ASO-3223 at 25 nM, and a cell migration assay was carried out; the results are shown in (e) of FIG. 3.

HLE cells [1] = experiment: Cell proliferation assay (CyQUANT NF) in HLE cells; assay type: cell-based; conditions: HLE cells transfected with ASO at 25 nM
Experimental: as §2
The cell proliferation assays were performed using the CyQUANT NF Cell Proliferation Assay Kits (Thermo Fisher Scientific), in the way recommended by the manufacturer.
HLE cells were transfected with control ASO, ASO-1316 and ASO-3223 at 25 nM and a proliferation assay was performed; the results of the assay are shown in (e) of FIG. 4.
HLE cells were transfected with control siRNA and PIK3CD siRNA (siRNA against PIK3CD) at 20 nM, and a proliferation assay was performed; the results are shown in (e) of FIG. 5. In addition, an anti-phosphorylated AKT antibody and an anti-AKT antibody as probes were caused to act on cell lysates of HLE cells transfected with control siRNA and PIK3CD siRNA; the results are shown in FIG. 5 (f). HLE cells were transfected with control siRNA and PIK3CD siRNA (siRNA against PIK3CD) at 20 nM and the PIK3CD mRNA amount was measured by real-time PCR; the results are shown in (c) of FIG. 7.

[2] = tested on: nuclear localization of YAP in A549 cells; experiment: Anti-YAP/TAZ antibody staining in A549 cells; assay type: cell-based, human; conditions: A549 cells transfected at 25 nM
Experimental: as §2
HLE cells or A549 cells were transfected with control ASO, ASO-1316, and ASO-3223 at 25 nM, and were stained with an anti-YAP/TAZ antibody; the results are shown in (c) of FIG. 6.

HLE cells [3] = experiment: Primary liver tumor model, HLE cells transplanted into mouse liver; assay type: in vivo; conditions: for HLE tumorigenesis in the liver: 50 μg/body subcutaneously twice a week from day 0, 29 days after transplantation
Experimental: Pellets of HLE cells (1×10^7 cells) were suspended in 100 μl of Matrigel matrix high concentration (BD Biosciences, San Jose, CA, USA) and were injected into the livers of 8-week-old male nude mice (BALB/cAJcl-nu/nu, CLEA Japan, Inc.) under anesthesia (day 0). From day 0, ASO (50 μg/body; about 2.5 mg/kg) was subcutaneously administered twice a week. Mice were euthanized 29 days after the HLE cell transplantation, and tumors were recovered and subjected to histological analysis.
In a primary liver tumor model in which HLE cells were directly transplanted into the liver, influences of the subcutaneous administration of ARL4C ASO (ASO-1316 and ASO-3223) on liver tumors was examined.
In experiments in the primary liver tumor model, Matrigel containing HEL cells at a high concentration was injected into the liver of a mouse (day 0), and control ASO, ASO-1316, and ASO-3223 were subcutaneously administered on and after day 0, at a frequency of twice a week. The tumor formed in the liver was observed when 29 days had elapsed since the transplantation; the result is shown in (a) of FIG. 8. In addition, when 29 days had elapsed since the transplantation, the tumor formed in the liver was immunostained with an anti-ARL4C antibody and an anti-PIK3CD antibody, the result of which is shown in (b) of FIG. 8, and the tumor was immunostained with an anti-Ki-67 antibody, the result of which is shown in (c) of FIG. 8.

[4] = subcutaneous twice a week, day 29

| Substance | NLN mRNA amount (off-target) (neurolysin (NLN) mRNA) | cell migration (HCT116 cells) | cell proliferation (HLE cells [1]) | nuclear localization of YAP [2] | HLE tumorigenesis in the liver (HLE cells [3]) | antitumor effect in vivo (HLE cells [3]; primary liver tumor model) | expression of ARL4C in tumors formed in the liver (immunostaining) (HLE cells [3]; [4]) | expression of PIK3CD in tumors formed in the liver (immunostaining) (HLE cells [3]; [4]) | number of Ki-67-positive cells in liver tumors (HLE cells [3]; [4]) | tumor size as compared with the control ASO (HLE cells [3]; 50 μg/body subcutaneously twice a week, day 29) | histological damage or cell death in the non-tumor area of the liver (HLE cells [3]; [4]) |
| --- | --- | --- | --- | --- | --- | --- | --- | --- | --- | --- | --- |
| ASO-3223: 19-mer ARL4C ASO of Table 1, SEQ ID NO 55 (antisense NNNGGTTACAGTATTTNNC; sugars from the 5' end [AmNA]3 d13 [AmNA]2 d1, backbone, methylation of C and the base at N not given here; further chemistry not fully specified) | did not significantly affect the expression | suppress the migration of HCT116 cells | inhibit HLE cells from proliferating | inhibited the nuclear localization of YAP | almost no influence | no antitumor effect was observed | almost no influence | almost no influence | almost no influence | – | – |
| ASO-1316: 15-mer AmNA/phosphorothioate ASO targeting ARL4C, base sequence SEQ ID NO: 1 gcatacctcaggtaa; Table 1 SEQ ID NO 13 (antisense GCATACCTCAGGTAA; AmNA and phosphorothioate modified, pattern not given here) | did not significantly affect the expression | suppress the migration of HCT116 cells | inhibit HLE cells from proliferating | inhibited the nuclear localization of YAP | able to suppress the HLE tumorigenesis | – | suppress the expression of ARL4C and PIK3CD | suppress the expression of ARL4C and PIK3CD | reduce the number of Ki-67-positive cells | reduce the tumor size by half | did not induce histological damage or cell death |
